# Data as given in patent US8067454B2, “Thio-substituted Anthra [1, 2-d] imidazole- 6, 11-dione derivatives, preparation method and application thereof” (National Defense Medical Center, priority 2010, dated 2011).
# Legend:
# COLO 205 = assay: NCI 60-cell drug screen, Colon Cancer COLO 205; format: cell-based, human; conditions: 1.00E−5 Molar
# NCI-H322M = assay: NCI 60-cell drug screen, Non-Small Cell Lung Cancer NCI-H322M; format: cell-based, human; conditions: 1.00E−5 Molar
# OVCAR-8 = assay: NCI 60-cell drug screen, Ovarian Cancer OVCAR-8; format: cell-based, human; conditions: 1.00E−5 Molar
# A549/ATCC = assay: NCI 60-cell drug screen, Non-Small Cell Lung Cancer A549/ATCC; format: cell-based, human; conditions: 1.00E−5 Molar
# PC-3 = assay: NCI 60-cell drug screen, Prostate Cancer PC-3; format: cell-based, human; conditions: 1.00E−5 Molar
# UO-31 = assay: NCI 60-cell drug screen, Renal Cancer UO-31; format: cell-based, human; conditions: 1.00E−5 Molar
# SR = assay: NCI 60-cell drug screen, Leukemia SR; format: cell-based, human; conditions: 1.00E−5 Molar
# SK-MEL-5 = assay: NCI 60-cell drug screen, Melanoma SK-MEL-5; format: cell-based, human; conditions: 1.00E−5 Molar
# SK-MEL-28 = assay: NCI 60-cell drug screen, Melanoma SK-MEL-28; format: cell-based, human; conditions: 1.00E−5 Molar
# HCT-15 = assay: NCI 60-cell drug screen, Colon Cancer HCT-15; format: cell-based, human; conditions: 1.00E−5 Molar
# HOP-92 = assay: NCI 60-cell drug screen, Non-Small Cell Lung Cancer HOP-92; format: cell-based, human; conditions: 1.00E−5 Molar
# SK-OV-3 = assay: NCI 60-cell drug screen, Ovarian Cancer SK-OV-3; format: cell-based, human; conditions: 1.00E−5 Molar
# U251 = assay: NCI 60-cell drug screen, CNS Cancer U251; format: cell-based, human; conditions: 1.00E−5 Molar
# SF-295 = assay: NCI 60-cell drug screen, CNS Cancer SF-295; format: cell-based, human; conditions: 1.00E−5 Molar
# IGROV1 = assay: NCI 60-cell drug screen, Ovarian Cancer IGROV1; format: cell-based, human; conditions: 1.00E−5 Molar
# OVCAR-4 = assay: NCI 60-cell drug screen, Ovarian Cancer OVCAR-4; format: cell-based, human; conditions: 1.00E−5 Molar
# UACC-257 = assay: NCI 60-cell drug screen, Melanoma UACC-257; format: cell-based, human; conditions: 1.00E−5 Molar
# M14 = assay: NCI 60-cell drug screen, Melanoma M14; format: cell-based, human; conditions: 1.00E−5 Molar
# HOP-62 = assay: NCI 60-cell drug screen, Non-Small Cell Lung Cancer HOP-62; format: cell-based, human; conditions: 1.00E−5 Molar
# MDA-MB-231/ATCC = assay: NCI 60-cell drug screen, Breast Cancer MDA-MB-231/ATCC; format: cell-based, human; conditions: 1.00E−5 Molar
# SN12C = assay: NCI 60-cell drug screen, Renal Cancer SN12C; format: cell-based, human; conditions: 1.00E−5 Molar
# SVG p12 = assay: MTT assay, SVG p12 normal cell; conditions: concentration 10 μM, normal cell
# NCI/ADR-RES = assay: NCI 60-cell drug screen, Ovarian Cancer NCI/ADR-RES; format: cell-based, human; conditions: 1.00E−5 Molar
# Protocol: In brief, cellular protein levels were determined after 48 hours of drug exposure by sulforhodamine B colorimetry. Through the use of a time 0 cell control, the cell growth can be determined for each cell line thus allowing calculations of the 50% growth inhibitory concentration (GI50), the total growth inhibition (TGI), and the 50% lethal concentration (LC50). Comparison to plates not exposed to drug permits determination of concentration and times of exposure conferring 50% net growth inhibition (GI50), TGI, and 50% cell kill (LC50).
# From the data analysis it follows that approximately 95% of the actives (potent anticancer drugs) from the 60 cell line screen can be identified. By these criteria, 6 compounds (each with its certification number, refer to Table 2) of the invention were reported that having anticancer activity.
# The screening system in United State National Cancer Institute (NCI) consists of 60 kinds of different human cancer cells, which can be used to assay the growth-inhibiting ability or cell toxicity of a compound against various cancer and tumor at a certain concentration.
# NCI had selected 6 compounds f1-0, f1-1, f3-1, f1-11, f1-2 and f1-15 as test compounds (Table 2). Among these compounds, compound f1-1 was effective against renal cancer cell strain CAKI-1, and could achieve an inhibition effect on the growth of said cancer cell up to −8.01. Compound f1-11 could achieve inhibiting effects against leukemia cell line CCRF-CEM and RPMI-8226, up to −15.39 and −60.17, respectively. Compound f1-2 was effective against central nervous system cancer cell line SNB-75, and could achieve an effect of inhibiting said cancer cell growth up to −9.55. Compound f1-15 was effective against leukemia (blood cancer) cell line K-562, MOLT-4, and RPMI-8226, and could achieve effects of inhibiting said cancer cells growth up to −31.59, −2.90 and −13.69, respectively. Further, compound f1-15 was effective also against renal cancer cell line CAKI-1, and could achieve an effect of inhibiting said cancer cell growth up to −14.89.
# GBM8901 = assay: MTT assay, GBM8901 tumor cell; conditions: concentration 10 μM, tumor cell
# 786-0 = assay: NCI 60-cell drug screen, Renal Cancer 786-0; format: cell-based, human; conditions: 1.00E−5 Molar
# SF-539 = assay: NCI 60-cell drug screen, CNS Cancer SF-539; format: cell-based, human; conditions: 1.00E−5 Molar
# HCT-116 = assay: NCI 60-cell drug screen, Colon Cancer HCT-116; format: cell-based, human; conditions: 1.00E−5 Molar
# SNB-75 = assay: NCI 60-cell drug screen, CNS Cancer SNB-75; format: cell-based, human; conditions: 1.00E−5 Molar
# HCC-2998 = assay: NCI 60-cell drug screen, Colon Cancer HCC-2998; format: cell-based, human; conditions: 1.00E−5 Molar
# LOX IMVI = assay: NCI 60-cell drug screen, Melanoma LOX IMVI; format: cell-based, human; conditions: 1.00E−5 Molar
# BT-549 = assay: NCI 60-cell drug screen, Breast Cancer BT-549; format: cell-based, human; conditions: 1.00E−5 Molar
# HL-60(TB) = assay: NCI 60-cell drug screen, Leukemia HL-60(TB); format: cell-based, human; conditions: 1.00E−5 Molar
# GBM8401 = assay: MTT assay, GBM8401 tumor cell; conditions: concentration 10 μM, tumor cell
# MOLT-4 = assay: NCI 60-cell drug screen, Leukemia MOLT-4; format: cell-based, human; conditions: 1.00E−5 Molar
# ACHN = assay: NCI 60-cell drug screen, Renal Cancer ACHN; format: cell-based, human; conditions: 1.00E−5 Molar
# [1] = test system: 60 kinds of different human cancer cells; assay: NCI 60-cell drug screen, whole panel (One Dose Mean Graph); format: cell-based; conditions: mean over the cell lines of the panel; 1.00E−5 Molar
# A498 = assay: NCI 60-cell drug screen, Renal Cancer A498; format: cell-based, human; conditions: 1.00E−5 Molar
# NCI-H522 = assay: NCI 60-cell drug screen, Non-Small Cell Lung Cancer NCI-H522; format: cell-based, human; conditions: 1.00E−5 Molar
Compound,"Growth Percent, COLO 205 (COLO 205)","Growth Percent, NCI-H322M (NCI-H322M)","Growth Percent, OVCAR-8 (OVCAR-8)","Growth Percent, A549/ATCC (A549/ATCC)","Growth Percent, PC-3 (PC-3)","Growth Percent, UO-31 (UO-31)","Growth Percent, SR (SR)","Growth Percent, SK-MEL-5 (SK-MEL-5)","Growth Percent, SK-MEL-28 (SK-MEL-28)","Growth Percent, HCT-15 (HCT-15)","Growth Percent, HOP-92 (HOP-92)","Growth Percent, SK-OV-3 (SK-OV-3)","Growth Percent, U251 (U251)","Growth Percent, SF-295 (SF-295)","Growth Percent, IGROV1 (IGROV1)","Growth Percent, OVCAR-4 (OVCAR-4)","Growth Percent, UACC-257 (UACC-257)","Growth Percent, M14 (M14)","Growth Percent, HOP-62 (HOP-62)","Growth Percent, MDA-MB-231/ATCC (MDA-MB-231/ATCC)",further results
"CCCSc1nc2ccc3c(c2[nH]1)C(=O)c1ccccc1C3=O [f1-2, 2-(propylthio)-1H-anthra[1,2-d]imidazole-6,11-dione]",102.68%,76.02%,44.68%,59.15%,66.76%,24.49%,71.03%,78.52%,92.59%,67.65%,17.25%,38.92%,62.95%,37.25%,53.72%,42.16%,86.31%,89.99%,59.09%,26.44%,"Growth Percent, SN12C (SN12C): 80.41%; Cell survival rate (%) SVG p12 (SVG p12): 99%; Growth Percent, NCI/ADR-RES (NCI/ADR-RES): 50.22%; Cell survival rate (%) GBM8901 (GBM8901): 62 ± 7%; Growth Percent, 786-0 (786-0): 21.82%; Growth Percent, SF-539 (SF-539): 23.99%; Growth Percent, HCT-116 (HCT-116): 47.69%; Growth Percent, SNB-75 (SNB-75): −9.55%; Growth Percent, HCC-2998 (HCC-2998): 81.92%; Growth Percent, LOX IMVI (LOX IMVI): 62.57%; Growth Percent, BT-549 (BT-549): 76.00%; Growth Percent, HL-60(TB) (HL-60(TB)): 74.23%; Cell survival rate (%) GBM8401 (GBM8401): 62 ± 18%; Growth Percent, MOLT-4 (MOLT-4): 68.13%; Growth Percent, ACHN (ACHN): 27.16%; Growth Percent, Mean [1]: 60.02%; Growth Percent, A498 (A498): 57.26%; Growth Percent, NCI-H522 (NCI-H522): 72.38%"
O=C1c2ccccc2C(=O)c2c1ccc1nc(SCCN3CCCC3)[nH]c21 [f1-11],17.13%,73.18%,49.38%,35.52%,6.90%,21.22%,20.25%,78.52%,100.23%,40.36%,35.17%,55.57%,69.07%,76.91%,23.20%,57.23%,92.77%,70.87%,73.74%,63.52%,"Growth Percent, SN12C (SN12C): 52.94%; Cell survival rate (%) SVG p12 (SVG p12): 98 ± 1%; Growth Percent, NCI/ADR-RES (NCI/ADR-RES): 53.74%; Cell survival rate (%) GBM8901 (GBM8901): 18 ± 2%; Growth Percent, 786-0 (786-0): 77.12%; Growth Percent, SF-539 (SF-539): 62.25%; Growth Percent, HCT-116 (HCT-116): 38.81%; Growth Percent, SNB-75 (SNB-75): 81.75%; Growth Percent, HCC-2998 (HCC-2998): 71.50%; Growth Percent, LOX IMVI (LOX IMVI): 11.89%; Growth Percent, BT-549 (BT-549): 78.62%; Growth Percent, HL-60(TB) (HL-60(TB)): 37.41%; Cell survival rate (%) GBM8401 (GBM8401): 78 ± 10%; Growth Percent, MOLT-4 (MOLT-4): 30.94%; Growth Percent, ACHN (ACHN): 34.58%; Growth Percent, Mean [1]: 52.08%; Growth Percent, A498 (A498): 71.37%; Growth Percent, NCI-H522 (NCI-H522): 81.51%"
